# In patent US11668709B2, “System for monitoring post-translational modification of protein using bio-sensor with gap and manufacturing method for bio-sensor” (KOREA INSTITUTE OF SCIENCE AND TECHNOLOGY, priority 2018, dated 2023):
# How the values were obtained:
# Format in all cases: biochemical
# [1] = test system: O-GlcNAcase; test: Verification Experiment 5: impedance with O-GlcNAcase inhibitor or promoter, second antibody (AT-8 antibody); settings: 100 μM BZX2 treated; tau protein 0.5-500 fg/ml; AT-8 phosphorylation site antibody
# Method: (§1) Tau protein at a concentration of 5250 ng/mL was diluted 1/10 at various concentrations (0.5 fg/mL to 50 pg/mL) with 0.1% PBST and treated with Thiamet G treatment inhibiting O-GlcNAcase or BZX2 promoting O-GlcNAcase as needed.
# The impedance Z was measured for when treated with a substance that inhibits O-GlcNAcase; and when treated with a substance that promotes O-GlcNAcase of O-glycosylated tau protein, using the system for monitoring post-translational modification of protein according to the embodiment of the present disclosure.
# A sample containing the second conjugate S2 (microbead+first antibody+tau protein) and an antibody (second antibody, AT-8 antibody) that can bind to the phosphorylation site of tau protein was introduced into the sensor 100, and impedance Z was measured for each of the following: (a) treated with 100 μM of thiamet G which is a substance that inhibits O-GlcNAcase; and (b) treated with 100 μM of BZX2 which is substance that promotes O-GloNAcase, for respective concentrations (0.5 fg/ml, 5 fg/ml, 50 fg/ml, and 500 fg/ml) of tau protein.
# The impedance Z was measured from each sample when the first sample containing the second conjugate S2 was introduced into the sensor 100 and when the second sample containing the third conjugate S3 was introduced into the sensor 100.
# [2] = test system: O-GlcNAcase; test: Verification Experiment 4: impedance with and without O-GlcNAcase inhibitor, third antibody (O-g Antibody); settings: 100 μM thiamet G treated compared to untreated; tau protein 0.5-524 fg/ml; O-glycosylation site antibody
# Method: as §1
# (§2) The impedance Z was measured with and without the substance that inhibits O-GlcNAcase, using the system for monitoring post-translational modification of protein according to the embodiment of the present disclosure.
# [3] = test system: O-GlcNAcase; test: Verification Experiment 6: impedance of tau protein with second or third antibody, with and without thiamet G; settings: 5 pg/ml tau protein
# Method: as §1, §2
# (a) 5 pg/ml of tau protein, (b) 5 pg/ml of tau protein+second antibody (AT-8 antibody), and (c) 5 pg/ml of tau protein+third antibody (O-g Antibody) were introduced into the sensor 100, respectively, and then impedance Z was measured for PBS, Neg, Thiamet G untreated, and 100 μM of thiamet G treated samples, respectively.
Compound,impedance difference (Z1−Z2) [1],difference in impedance (Z1−Z3) [2],impedance Z2 measured as the second antibody (AT-8 antibody) was added ([3]; 100 μM thiamet G treated (untreated 33.65 MΩ)),impedance Z3 measured as the third antibody (O-g antibody) was added ([3]; 100 μM thiamet G treated (untreated 38.27 MΩ))
BZX2,increases as the concentration of tau protein increases,,,
CCN=C1N[C@@H]2[C@@H](O)[C@H](O)[C@@H](CO)O[C@@H]2S1 [thiamet G],,greater,37.65 MΩ,35.0 MΩ
